ChEMBL document CHEMBL1759957, “Synthesis and antibacterial evaluation of novel 8-fluoro Norfloxacin derivatives as potential probes for methicillin and vancomycin-resistant Staphylococcus aureus” (2011)
≈ marks a conversion by molar mass, not a printed value.

What was measured:
Test in all cases: microbe, parasite or virus in culture
Type in all cases: functional
Staphylococcus aureus [1] = conditions: ATCC 29213, 24 h
Description: Antibacterial activity against methicillin- resistant and vancomycin resistant Staphylococcus aureus ATCC 29213 after 24 hrs by spectrophotometry

Klebsiella pneumoniae = conditions: ATCC 27736, 24 h
Description: Antibacterial activity against Klebsiella pneumoniae ATCC 27736 after 24 hrs by spectrophotometry

Staphylococcus aureus [2] = conditions: ATCC 25923, 24 h
Description: Antibacterial activity against methicillin- resistant Staphylococcus aureus ATCC 25923 after 24 hrs by spectrophotometry

Compound | MIC (Staphylococcus aureus [1]) [µg/mL] | MIC (Klebsiella pneumoniae) [µg/mL] | MIC (Staphylococcus aureus [2]) [µg/mL]
CCn1cc(C(=O)O)c(=O)c2cc(F)c(N3CCN(Cc4ccccc4)CC3)c(F)c21 | 0.19 (≈ 0.444 µM) | 0.011 (≈ 0.0257 µM) | 0.19 (≈ 0.444 µM)
CCn1cc(C(=O)O)c(=O)c2cc(F)c(N3CCN(c4ccccc4)CC3)c(F)c21 | 0.09 (≈ 0.218 µM) | 0.09 (≈ 0.218 µM) | 0.39 (≈ 0.943 µM)
CCn1cc(C(=O)O)c(=O)c2cc(F)c(N3CCOCC3)c(F)c21 | 0.045 (≈ 0.133 µM) | 0.022 (≈ 0.065 µM) | 0.022 (≈ 0.065 µM)
CCn1cc(C(=O)O)c(=O)c2cc(F)c(N3CCCCC3)c(F)c21 | 0.39 (≈ 1.16 µM) | 0.19 (≈ 0.565 µM) | 0.19 (≈ 0.565 µM)
CCN1CCN(c2c(F)cc3c(=O)c(C(=O)O)cn(CC)c3c2F)CC1 | 0.39 (≈ 1.07 µM) | 0.19 (≈ 0.52 µM) | 0.78 (≈ 2.13 µM)
CCn1cc(C(=O)O)c(=O)c2cc(F)c(NCCN3CCOCC3)c(F)c21 | – | 1.56 (≈ 4.09 µM) | 3.12 (≈ 8.18 µM)
CCn1cc(C(=O)O)c(=O)c2cc(F)c(NCCCN3CCOCC3)c(F)c21 | – | 1.56 (≈ 3.95 µM) | 3.12 (≈ 7.89 µM)
CCCCNc1c(F)cc2c(=O)c(C(=O)O)cn(CC)c2c1F | 0.39 (≈ 1.2 µM) | 0.022 (≈ 0.0678 µM) | 0.39 (≈ 1.2 µM)
CCn1cc(C(=O)O)c(=O)c2cc(F)c(NC(C)(C)C)c(F)c21 | – | 0.09 (≈ 0.277 µM) | 12.5 (≈ 38.5 µM)
CCCNc1c(F)cc2c(=O)c(C(=O)O)cn(CC)c2c1F | – | 0.78 (≈ 2.51 µM) | 12.5 (≈ 40.3 µM)
CCn1cc(C(=O)O)c(=O)c2cc(F)c(NC(C)C)c(F)c21 | 0.78 (≈ 2.51 µM) | 0.09 (≈ 0.29 µM) | 0.78 (≈ 2.51 µM)
O=C(O)c1cn(Cc2ccc(C(F)(F)F)cc2)c2c(F)c(N3CCOCC3)c(F)cc2c1=O | – | 12.5 (≈ 26.7 µM) | 12.5 (≈ 26.7 µM)
O=C(O)c1cn(Cc2ccc(C(F)(F)F)cc2)c2c(F)c(N3CCCCC3)c(F)cc2c1=O | – | 12.5 (≈ 26.8 µM) | > 50
O=C(O)c1cn(Cc2ccc(C(F)(F)F)cc2)c2c(F)c(N3CCNCC3)c(F)cc2c1=O | – | 12.5 (≈ 26.7 µM) | > 50
CN1CCN(c2c(F)cc3c(=O)c(C(=O)O)cn(Cc4ccc(C(F)(F)F)cc4)c3c2F)CC1 | – | > 50 | > 50
CCN1CCN(c2c(F)cc3c(=O)c(C(=O)O)cn(Cc4ccc(C(F)(F)F)cc4)c3c2F)CC1 | – | > 50 | > 50
O=C(O)c1cn(Cc2ccc(C(F)(F)F)cc2)c2c(F)c(N3CCN(c4ccccc4)CC3)c(F)cc2c1=O | 1.56 (≈ 2.87 µM) | 0.39 (≈ 0.718 µM) | 0.78 (≈ 1.44 µM)
O=C(O)c1cn(Cc2ccc(C(F)(F)F)cc2)c2c(F)c(N3CCN(Cc4ccccc4)CC3)c(F)cc2c1=O | – | 1.56 (≈ 2.8 µM) | 1.56 (≈ 2.8 µM)
O=C(O)c1cn(Cc2ccc(C(F)(F)F)cc2)c2c(F)c(NCCN3CCOCC3)c(F)cc2c1=O | – | 12.5 (≈ 24.4 µM) | > 50
O=C(O)c1cn(Cc2ccc(C(F)(F)F)cc2)c2c(F)c(NCCCN3CCOCC3)c(F)cc2c1=O | – | 25 (≈ 47.6 µM) | > 50
CCCCNc1c(F)cc2c(=O)c(C(=O)O)cn(Cc3ccc(C(F)(F)F)cc3)c2c1F | – | > 50 | > 50
CC(C)(C)Nc1c(F)cc2c(=O)c(C(=O)O)cn(Cc3ccc(C(F)(F)F)cc3)c2c1F | – | > 50 | > 50
CCCNc1c(F)cc2c(=O)c(C(=O)O)cn(Cc3ccc(C(F)(F)F)cc3)c2c1F | – | 3.12 (≈ 7.08 µM) | 1.56 (≈ 3.54 µM)
CC(C)Nc1c(F)cc2c(=O)c(C(=O)O)cn(Cc3ccc(C(F)(F)F)cc3)c2c1F | – | 1.56 (≈ 3.54 µM) | 3.12 (≈ 7.08 µM)
CCn1cc(C(=O)O)c(=O)c2cc(F)c(N3CCN(c4nc(N5CCOCC5)nc(N5CCOCC5)n4)CC3)c(F)c21 | – | 3.12 (≈ 5.32 µM) | 3.12 (≈ 5.32 µM)
CCn1cc(C(=O)O)c(=O)c2cc(F)c(N3CCN(c4nc(N5CCCCC5)nc(N5CCCCC5)n4)CC3)c(F)c21 | – | > 50 | > 50
CCn1cc(C(=O)O)c(=O)c2cc(F)c(N3CCN(c4nc(N5CCN(C)CC5)nc(N5CCN(C)CC5)n4)CC3)cc21 | 0.39 (≈ 0.656 µM) | 0.39 (≈ 0.656 µM) | 0.39 (≈ 0.656 µM)

Compound | MIC (Staphylococcus aureus [1]) [µg/mL] | MIC (Klebsiella pneumoniae) [µg/mL] | MIC (Staphylococcus aureus [2]) [µg/mL]
CCn1cc(C(=O)O)c(=O)c2cc(F)c(N3CCN(c4nc(NCCN5CCOCC5)nc(NCCN5CCOCC5)n4)CC3)c(F)c21 | 1.56 (≈ 2.32 µM) | 0.78 (≈ 1.16 µM) | 0.78 (≈ 1.16 µM)
CCn1cc(C(=O)O)c(=O)c2cc(F)c(N3CCN(c4nc(NCCCN5CCOCC5)nc(NCCCN5CCOCC5)n4)CC3)c(F)c21 | – | 12.5 (≈ 17.8 µM) | 12.5 (≈ 17.8 µM)
CCCCNc1nc(NCCCC)nc(N2CCN(c3c(F)cc4c(=O)c(C(=O)O)cn(CC)c4c3F)CC2)n1 | 0.39 (≈ 0.698 µM) | 0.39 (≈ 0.698 µM) | 0.39 (≈ 0.698 µM)
CCn1cc(C(=O)O)c(=O)c2cc(F)c(N3CCN(c4nc(NC(C)(C)C)nc(NC(C)(C)C)n4)CC3)c(F)c21 | – | 0.39 (≈ 0.698 µM) | 3.12 (≈ 5.59 µM)
CCCNc1nc(NCCC)nc(N2CCN(c3c(F)cc4c(=O)c(C(=O)O)cn(CC)c4c3F)CC2)n1 | 0.78 (≈ 1.47 µM) | 0.19 (≈ 0.358 µM) | 0.78 (≈ 1.47 µM)
CCn1cc(C(=O)O)c(=O)c2cc(F)c(N3CCN(c4nc(NC(C)C)nc(NC(C)C)n4)CC3)c(F)c21 | 0.78 (≈ 1.47 µM) | 0.39 (≈ 0.735 µM) | 0.39 (≈ 0.735 µM)
O=C(O)c1cn(Cc2ccc(C(F)(F)F)cc2)c2c(F)c(N3CCN(c4nc(N5CCCCC5)nc(N5CCCCC5)n4)CC3)c(F)cc2c1=O | – | 50 (≈ 70.2 µM) | 50 (≈ 70.2 µM)
CN1CCN(c2nc(N3CCN(C)CC3)nc(N3CCN(c4cc5c(cc4F)c(=O)c(C(=O)O)cn5Cc4ccc(C(F)(F)F)cc4)CC3)n2)CC1 | – | 12.5 (≈ 17.2 µM) | 25 (≈ 34.5 µM)
O=C(O)c1cn(Cc2ccc(C(F)(F)F)cc2)c2c(F)c(N3CCN(c4nc(NCCN5CCOCC5)nc(NCCN5CCOCC5)n4)CC3)c(F)cc2c1=O | – | 6.25 (≈ 7.79 µM) | 12.5 (≈ 15.6 µM)
O=C(O)c1cn(Cc2ccc(C(F)(F)F)cc2)c2c(F)c(N3CCN(c4nc(NCCCN5CCOCC5)nc(NCCCN5CCOCC5)n4)CC3)c(F)cc2c1=O | – | 50 (≈ 60.2 µM) | > 50
CCCCNc1nc(NCCCC)nc(N2CCN(c3c(F)cc4c(=O)c(C(=O)O)cn(Cc5ccc(C(F)(F)F)cc5)c4c3F)CC2)n1 | 0.39 (≈ 0.566 µM) | 0.39 (≈ 0.566 µM) | 3.12 (≈ 4.53 µM)
CCCNc1nc(NCCC)nc(N2CCN(c3c(F)cc4c(=O)c(C(=O)O)cn(Cc5ccc(C(F)(F)F)cc5)c4c3F)CC2)n1 | 1.56 (≈ 2.36 µM) | 0.78 (≈ 1.18 µM) | 1.56 (≈ 2.36 µM)
CC(C)Nc1nc(NC(C)C)nc(N2CCN(c3c(F)cc4c(=O)c(C(=O)O)cn(Cc5ccc(C(F)(F)F)cc5)c4c3F)CC2)n1 | 0.78 (≈ 1.18 µM) | 0.39 (≈ 0.59 µM) | 0.78 (≈ 1.18 µM)
CCn1cc(C(=O)O)c(=O)c2cc(F)c(N3CCN(c4cc(C)nc(N5CCOCC5)n4)CC3)c(F)c21 | 0.045 (≈ 0.0875 µM) | 0.045 (≈ 0.0875 µM) | 0.39 (≈ 0.758 µM)
CCn1cc(C(=O)O)c(=O)c2cc(F)c(N3CCN(c4cc(C)nc(N5CCCCC5)n4)CC3)c(F)c21 | 0.39 (≈ 0.761 µM) | 0.045 (≈ 0.0878 µM) | 0.39 (≈ 0.761 µM)
CCn1cc(C(=O)O)c(=O)c2cc(F)c(N3CCN(c4cc(C)nc(N5CCN(C)CC5)n4)CC3)cc21 | – | > 50 | > 50
CCn1cc(C(=O)O)c(=O)c2cc(F)c(N3CCN(c4cc(C)nc(NCCN5CCOCC5)n4)CC3)c(F)c21 | 0.19 (≈ 0.341 µM) | 0.22 (≈ 0.395 µM) | 0.22 (≈ 0.395 µM)
CCn1cc(C(=O)O)c(=O)c2cc(F)c(N3CCN(c4cc(C)nc(NCCCN5CCOCC5)n4)CC3)c(F)c21 | 0.19 (≈ 0.332 µM) | 0.22 (≈ 0.385 µM) | 0.22 (≈ 0.385 µM)
CCCNc1nc(C)cc(N2CCN(c3c(F)cc4c(=O)c(C(=O)O)cn(CC)c4c3F)CC2)n1 | 0.39 (≈ 0.802 µM) | 0.09 (≈ 0.185 µM) | 0.39 (≈ 0.802 µM)
CCn1cc(C(=O)O)c(=O)c2cc(F)c(N3CCN(c4cc(C)nc(NC(C)C)n4)CC3)c(F)c21 | 0.19 (≈ 0.391 µM) | 0.011 (≈ 0.0226 µM) | 0.22 (≈ 0.452 µM)
Cc1cc(N2CCN(c3c(F)cc4c(=O)c(C(=O)O)cn(Cc5ccc(C(F)(F)F)cc5)c4c3F)CC2)nc(N2CCCCC2)n1 | 0.39 (≈ 0.607 µM) | 0.39 (≈ 0.607 µM) | 0.78 (≈ 1.21 µM)
Cc1cc(N2CCN(c3c(F)cc4c(=O)c(C(=O)O)cn(Cc5ccc(C(F)(F)F)cc5)c4c3F)CC2)nc(NCCCN2CCOCC2)n1 | – | 6.25 (≈ 8.91 µM) | 25 (≈ 35.6 µM)
Cc1cc(N2CCN(c3c(F)cc4c(=O)c(C(=O)O)cn(Cc5ccc(C(F)(F)F)cc5)c4c3F)CC2)nc(NC(C)(C)C)n1 | 1.56 (≈ 2.47 µM) | 0.19 (≈ 0.301 µM) | 1.56 (≈ 2.47 µM)
Cc1cc(N2CCN(c3c(F)cc4c(=O)c(C(=O)O)cn(Cc5ccc(C(F)(F)F)cc5)c4c3F)CC2)nc(NC(C)C)n1 | 0.78 (≈ 1.27 µM) | 0.19 (≈ 0.308 µM) | 0.78 (≈ 1.27 µM)
CCn1cc(C(=O)O)c(=O)c2cc(F)c(N3CCNCC3)c(F)c21 | 0.39 (≈ 1.16 µM) | 0.045 (≈ 0.133 µM) | 0.78 (≈ 2.31 µM)
CCn1cc(C(=O)O)c(=O)c2cc(F)c(N3CCN(C)CC3)c(F)c21 | 0.19 (≈ 0.541 µM) | 0.011 (≈ 0.0313 µM) | 0.19 (≈ 0.541 µM)
